Results reported in US20250304623A1, “PEPTIDES FOR INTRACELLULAR DELIVERY” (UNIVERSIDADE DE SANTIAGO DE COMPOSTELA, priority 2022, published 2025).
*: point of attachment. NHNH2 = NN*

Tests used:
Format in all cases: cell-based
Hek293 cells [1] = test: RLuc pDNA delivery, robotic library screening, Hek293
Hek293 cells [2] = test: EGFP mRNA delivery, robotic library screening, Hek293
Experimental: Cells were seeded in a 96 well plate the day before the experiment at a concentration of 50,000 cell/mL (100 μL/w) in DMEM+10% FBS+1% Gln-Abt. For robotic library screening, the delivery of EGFP-mRNA (from TriLink, fully substituted with 5-methoxyuridine, capped and polyadenylated; TriLink, CleanCap® EGFP mRNA (5moU), ref. L-7201) in six different cell lines was performed. Amphiphilic molecule stock solutions were prepared in DMSO as described above and diluted in DMEM to afford a range of concentrations. The solutions of EGFP-mRNA/amphiphilic molecule complexes were freshly prepared prior to the transfection experiments. 35 μL of the corresponding amphiphile were added to 10 μL of a solution of EGFP-mRNA at 10 ng/μL in DMEM. The mixture was shaken for 30 min at room temperature before the addition to the cells. The cell medium was aspirated, and cells were washed with PBS twice. Cells were covered with 39 μL of DMEM and 11 μL of the complex's solution were added to the cells and incubated for 4 h (final concentration of peptide=2.5, 5 and 10 μM; final concentration of EGFP-mRNA=25 ng/well). After the incubation, the medium was replaced by 100 μL of fresh DMEM supplemented with 10% FBS. The total EGFP fluorescence was quantified after 72 h in a well plate reader. Amphiphile transfection efficiency was compared and normalized to Lipofectamine® MessengerMax efficiency (value of 1 in Tables 1-5 and 7; double underlined numbers). All experiments were done in triplicate.
Tables 1-7: RLuc (pDNA) or EGFP (mRNA) expression levels were normalized to Lipofectamine reagents (value=1) and expressed as fold-times signal increase. In the case of siRNA, the siRNA treated cells fluorescence was compared with siMOCK control fluorescence, while Cas9-RNP mediated knockout was measured against the fluorescence of untreated cells. In both siRNA and Cas9-RNP, values are expressed as % fluorescence reduction. Amphiphile concentration was 5 μM in all cases. All experiments were performed in triplicate.
Tables 14-19 show the mean (triplicates) fluorescence intensity measured after the transfection of EGFP mRNA by different amphiphiles at different concentrations in a variety of cell lines. Background fluorescence values, accounted by untreated control cells, were subtracted for processing.

[3] = system: HCT116 cells expressing EGFP; test: Cas9-RNP delivery against EGFP (gene editing, plate reader), HCT116
Experimental: To generate an EGFP expressing HeLa cell line, HeLa cells were transfected with EGFP pDNA (pEGFP-C1, Clontech) and stable transfectants were selected with 400 μg/mL of G-418 (Millipore). Green clones were selected by epifluorescence microscopy and tested for EGFP expression stability through several passages. […] All other EGFP-expressing cell lines were obtained in a similar way from parent non-EGFP-expressing cell lines.
Cells expressing EGFP were seeded in a 96 well plate the day before the experiment at a concentration of 50,000 cell/mL (100 μL/w) in DMEM+10% FBS+1% Gln-Abt. For robotic library screening, the delivery of Cas9-RNP against EGFP (RNP designed to knock-out the gene encoding for the enhanced green fluorescent protein (EGFP)) was performed. For RNP assembly, 9.2 μL of crRNA and 9.2 μL of tracrRNA were mixed in 211.6 μL of Nuclease-Free Duplex Buffer (IDT), incubated for 5 min at 95° C. and slowly cooled at rt (see I. Lostalé-Seijo, et al. Peptide/Cas9 nanostructures for ribonucleoprotein cell membrane transport and gene edition, Chem. Sci., 2017). Cas9 protein was dissolved in DMEM at a final concentration of 4 μM and equal volumes of the RNA complex and Cas9 were mixed and incubated for 5 min at rt. 75 μL of the corresponding amphiphile concentrations were added to 5 μL of RNP at 2 μM. The mixture was shaken for 30 min at room temperature before the addition to the cells. The cell medium was aspirated, and cells were washed twice with PBS. Cells were covered with 30 μL of DMEM and 20 μL of the RNP/amphiphile complexes were added to the cells (final peptide concentrations=2.5, 5 and 10 μM; final Cas9-RNP concentration=50 nM) and incubated for 4 h. After the incubation, the medium was replaced by 100 μL of fresh DMEM supplemented with 10% FBS. The total EGFP fluorescence was quantified after 72 h in a plate reader (FIG. 2, Table 1 (right) and Table 6). All experiments were done in triplicate. […]
Tables 26-31 show the mean (triplicates) percentage of gene editing, accounted by GFP fluorescence intensity decrease (% of reduction), measured after the transfection of Cas9-RNP by different amphiphiles at different concentrations in a variety of cell lines. Background values, accounted by untreated control cells, were subtracted for processing.

Ac-RK*LRRK*L-NH2 (Ac-RK(NHNH2)LRRK(NHNH2)L-NH2; not fully specified; printed as Ac-RK*LRRK*L-NH2; also: K*2,K*6: native or modified lysine (ε-amide to a linker)) [Peptide 7.2]
mean luminescent intensity (RLuc pDNA) (Hek293 cells [1]; Dodecanal, 10 μM): 8723 RLU
mean luminescent intensity (RLuc pDNA) (Hek293 cells [1]; Dodecanal, 15 μM): 11358 RLU
mean luminescent intensity (RLuc pDNA) (Hek293 cells [1]; Myristoleyl, 5 μM): 5382 RLU
mean luminescent intensity (RLuc pDNA) (Hek293 cells [1]; Myristoleyl, 10 μM): 24464 RLU
mean luminescent intensity (RLuc pDNA) (Hek293 cells [1]; Myristoleyl, 15 μM): 8475 RLU
mean fluorescence intensity (EGFP mRNA) (Hek293 cells [2]; Dodecanal, 2.5 μM): 251
mean fluorescence intensity (EGFP mRNA) (Hek293 cells [2]; Dodecanal, 5 μM): 71
mean fluorescence intensity (EGFP mRNA) (Hek293 cells [2]; Dodecanal, 10 μM): 648
mean fluorescence intensity (EGFP mRNA) (Hek293 cells [2]; Myristoleyl, 2.5 μM): 2550
mean fluorescence intensity (EGFP mRNA) (Hek293 cells [2]; Myristoleyl, 5 μM): 1729
mean fluorescence intensity (EGFP mRNA) (Hek293 cells [2]; Myristoleyl, 10 μM): 591
percentage of gene editing, GFP fluorescence intensity decrease (% of reduction) ([3]; Dodecanal, 15 μM): −18%

Ac-RK*LRRK*LRK*-NH2 (Ac-RK(NHNH2)LRRK(NHNH2)LRK(NHNH2)-NH2; not fully specified; printed as Ac-RK*LRRK*LRK*-NH2; also: K*2,K*6,K*9: native or modified lysine (ε-amide to a linker)) [Peptide 9.3]
mean luminescent intensity (RLuc pDNA) (Hek293 cells [1]; Dodecanal, 10 μM): 71221 RLU
mean luminescent intensity (RLuc pDNA) (Hek293 cells [1]; Dodecanal, 15 μM): 33244 RLU
mean luminescent intensity (RLuc pDNA) (Hek293 cells [1]; Oleyl, 15 μM): 4792 RLU
mean luminescent intensity (RLuc pDNA) (Hek293 cells [1]; Palmitoleyl, 5 μM): −143 RLU
mean luminescent intensity (RLuc pDNA) (Hek293 cells [1]; Palmitoleyl, 10 μM): −284 RLU
mean luminescent intensity (RLuc pDNA) (Hek293 cells [1]; Palmitoleyl, 15 μM): 3126 RLU
mean luminescent intensity (RLuc pDNA) (Hek293 cells [1]; Petroselinyl, 5 μM): −1091 RLU
mean luminescent intensity (RLuc pDNA) (Hek293 cells [1]; Petroselinyl, 10 μM): −1142 RLU
mean luminescent intensity (RLuc pDNA) (Hek293 cells [1]; Petroselinyl, 15 μM): 147 RLU
mean fluorescence intensity (EGFP mRNA) (Hek293 cells [2]; Oleyl, 2.5 μM): 1416
mean fluorescence intensity (EGFP mRNA) (Hek293 cells [2]; Oleyl, 5 μM): 2885
mean fluorescence intensity (EGFP mRNA) (Hek293 cells [2]; Oleyl, 10 μM): 466
mean fluorescence intensity (EGFP mRNA) (Hek293 cells [2]; Palmitoleyl, 5 μM): 1665
mean fluorescence intensity (EGFP mRNA) (Hek293 cells [2]; Palmitoleyl, 10 μM): 1394
mean fluorescence intensity (EGFP mRNA) (Hek293 cells [2]; Petroselinyl, 2.5 μM): 1364
mean fluorescence intensity (EGFP mRNA) (Hek293 cells [2]; Petroselinyl, 5 μM): 4636
mean fluorescence intensity (EGFP mRNA) (Hek293 cells [2]; Petroselinyl, 10 μM): 643
percentage of gene editing, GFP fluorescence intensity decrease (% of reduction) ([3]; Dodecanal, 5 μM): 7%
percentage of gene editing, GFP fluorescence intensity decrease (% of reduction) ([3]; Dodecanal, 10 μM): 1%
percentage of gene editing, GFP fluorescence intensity decrease (% of reduction) ([3]; Dodecanal, 15 μM): −8%
percentage of gene editing, GFP fluorescence intensity decrease (% of reduction) ([3]; Myristoleyl, 15 μM): −11%
percentage of gene editing, GFP fluorescence intensity decrease (% of reduction) ([3]; Oleyl, 5 μM): 24%
percentage of gene editing, GFP fluorescence intensity decrease (% of reduction) ([3]; Oleyl, 10 μM): 14%
percentage of gene editing, GFP fluorescence intensity decrease (% of reduction) ([3]; Palmitoleyl, 5 μM): −21%
percentage of gene editing, GFP fluorescence intensity decrease (% of reduction) ([3]; Palmitoleyl, 15 μM): −38%
percentage of gene editing, GFP fluorescence intensity decrease (% of reduction) ([3]; Petroselinyl, 15 μM): 4%
